According to patent US4751215A, “Process for increasing the sexual activity of birds and useful domestic mammals and for preparing spermatozoa suitable to their propagation” (INNOFINANCE Altalanos Innovacios Penzintezet, priority 1985, dated 1988):

Columns and labels:
Type in all cases: in vivo
male turkeys [1] = assay: Effect of gonadoliberin analogues on the sperm production of male turkeys (Table 5)
Source text: In a further experiment, the sperm production of male turkeys was raised by administering the following four compounds: […]

male turkey = assay: Effect of interval between three intramuscular injections on sperm production of male turkey (Table 2); settings: three i.m. injections, 1 μg/kg
Source text: In Table 2, the influence on the sperm production of the interval kept between the consecutive treatments is shown on male turkeys.

bull = assay: Enhancement of the sexual activity of a bull; settings: 300 μg each, 3 times
Procedure: A 2-year old bull of 1010 kg weight, of breeding condition and correspondingly having a good muscular system, good leg construction and a definitely male sexual character was set to breeding in 1985. On October 16 and 23 as well as on Nov. 1, 1985 test coverings were carried out on a rutting female cattle and on a phantom bull. […] Diagnosis stated by the veterinarian specialist: importentia coeundi. The bull was treated on November 29 as well as on Dec. 2 and 4, 1986 altogether 3 times with 300 μg each of D-[…] -GnRH analogue. On Dec. […] 7, 1986. On Jan. 21, 1986 the bull sprung onto a cow being after rutting. The sexual potency of the animal was unobjectionable even after 5 weeks following the treatment.

[2] = system: blood plasma testosterone level; assay: Effect of various doses on blood plasma testosterone level of domestic cock (Table 1)
Source text: In Table 1, the relation of the doses of the compounds of general formula (I) to the blood plasma testosterone level of the treated animals is illustrated in case of domestic cocks.

testosterone level = assay: Testosterone level of treated male turkeys (Table 3); settings: Treated (n = 15)
Procedure: (§1) 0.5 μg/kg of D-Phe^6 -GnRH analogue was intramuscularly administered to sexually mature male turkeys every 2 days, altogether 3 times. On the 20th day following treatment, the sperm production reached an increase of 44% and remained at a higher level, as compared to the control, for about 1 month (FIG. 4).
(§2) One month and half after the first treatment, the same animals were similarly treated with 0.5 μg/kg of (Asp-α-diethylamide)^6,desGly^10 -GnRH ethylamide analogue every 2 days, altogether 3 times.
The rise of the LH level of the blood was followed by an increase in the testosterone level (Table 3).

male turkeys [3] = assay: Permanent increase in sperm production of male turkeys bred on a large scale (Example 1, FIG. 4); settings: 0.5 μg/kg i.m. every 2 days, 3 times
Procedure: as §1, §2

CC(C)C[C@H](NC(=O)[C@@H](Cc1ccccc1)NC(=O)[C@H](Cc1ccc(O)cc1)NC(=O)[C@H](CO)NC(=O)[C@H](Cc1c[nH]c2ccccc12)NC(=O)[C@H](Cc1c[nH]cn1)NC(=O)[C@@H]1CCC(=O)N1)C(=O)N[C@@H](CCCNC(=N)N)C(=O)N1CCC[C@H]1C(=O)NCC(N)=O [Compound "A", D-Phe^6 -GnRH]
Sperm production (male turkeys [1]; after 30 days): 0.34 ml/animal | Sperm production (male turkeys [1]; after 60 days): 0.39 ml/animal | Sperm production (male turkeys [1]; at the beginning of the experiment): 0.27 ml/animal | Sperm volume (male turkey; interval between treatments 24 hour, on day 0): 0.18 (0.05) ml | Sperm volume (male turkey; interval between treatments 24 hour, on the 20th day): 0.21 (0.10) ml | Sperm volume (male turkey; interval between treatments 48 hour, on day 0): 0.19 (0.07) ml | Sperm volume (male turkey; interval between treatments 48 hour, on the 20th day): 0.35 (0.12) ml | Sperm volume (male turkey; interval between treatments 72 hour, on day 0): 0.16 (0.08) ml | Sperm volume (male turkey; interval between treatments 72 hour, on the 20th day): 0.25 (0.11) ml | Sperm volume (male turkey; interval between treatments 144 hour, on day 0): 0.21 (0.07) ml | Sperm volume (male turkey; interval between treatments 144 hour, on the 20th day): 0.24 (0.09) ml | sexual potency of the animal (bull; 5 weeks following the treatment): unobjectionable | covering behaviour after treatment (bull; bull with impotentia coeundi, Dec. 6, 1985): covered two times a rutting cow | Testosterone level of the blood plasma ([2]; dose 0.01 μg/kg, after 0 minutes): 1.7 (0.7) ng/ml | Testosterone level of the blood plasma ([2]; dose 0.01 μg/kg, after 30 minutes): 1.6 (1.3) ng/ml | Testosterone level of the blood plasma ([2]; dose 0.01 μg/kg, after 60 minutes): 1.5 (1.0) ng/ml | Testosterone level of the blood plasma ([2]; dose 0.01 μg/kg, after 120 minutes): 1.4 (0.6) ng/ml | Testosterone level of the blood plasma ([2]; dose 0.05 μg/kg, after 0 minutes): 1.4 (0.7) ng/ml | Testosterone level of the blood plasma ([2]; dose 0.05 μg/kg, after 30 minutes): 1.7 (1.2) ng/ml | Testosterone level of the blood plasma ([2]; dose 0.05 μg/kg, after 60 minutes): 1.5 (1.2) ng/ml | Testosterone level of the blood plasma ([2]; dose 0.05 μg/kg, after 120 minutes): 1.9 (0.8) ng/ml | Testosterone level of the blood plasma ([2]; dose 0.1 μg/kg, after 0 minutes): 1.0 (0.2) ng/ml | Testosterone level of the blood plasma ([2]; dose 0.1 μg/kg, after 30 minutes): 3.4 (1.9) ng/ml | Testosterone level of the blood plasma ([2]; dose 0.1 μg/kg, after 60 minutes): 2.7 (1.1) ng/ml | Testosterone level of the blood plasma ([2]; dose 0.1 μg/kg, after 120 minutes): 2.0 (0.8) ng/ml | Testosterone level of the blood plasma ([2]; dose 0.3 μg/kg, after 0 minutes): 2.1 (0.7) ng/ml | Testosterone level of the blood plasma ([2]; dose 0.3 μg/kg, after 30 minutes): 3.9 (0.6) ng/ml | Testosterone level of the blood plasma ([2]; dose 0.3 μg/kg, after 60 minutes): 4.2 (1.2) ng/ml | Testosterone level of the blood plasma ([2]; dose 0.3 μg/kg, after 120 minutes): 2.6 (0.5) ng/ml | Testosterone level of the blood plasma ([2]; dose 0.5 μg/kg, after 0 minutes): 2.5 (1.0) ng/ml | Testosterone level of the blood plasma ([2]; dose 0.5 μg/kg, after 30 minutes): 6.5 (0.5) ng/ml | Testosterone level of the blood plasma ([2]; dose 0.5 μg/kg, after 60 minutes): 5.3 (1.2) ng/ml | Testosterone level of the blood plasma ([2]; dose 0.5 μg/kg, after 120 minutes): 3.9 (1.5) ng/ml | Testosterone level of the blood plasma ([2]; dose 1.0 μg/kg, after 0 minutes): 1.5 (0.8) ng/ml | Testosterone level of the blood plasma ([2]; dose 1.0 μg/kg, after 30 minutes): 7.2 (3.5) ng/ml | Testosterone level of the blood plasma ([2]; dose 1.0 μg/kg, after 60 minutes): 7.1 (3.6) ng/ml | Testosterone level of the blood plasma ([2]; dose 1.0 μg/kg, after 120 minutes): 3.7 (1.2) ng/ml | Testosterone level of the blood plasma ([2]; dose 3.0 μg/kg, after 0 minutes): 1.9 (0.3) ng/ml | Testosterone level of the blood plasma ([2]; dose 3.0 μg/kg, after 30 minutes): 6.2 (2.4) ng/ml | Testosterone level of the blood plasma ([2]; dose 3.0 μg/kg, after 60 minutes): 5.2 (1.7) ng/ml | Testosterone level of the blood plasma ([2]; dose 3.0 μg/kg, after 120 minutes): 3.0 (1.1) ng/ml | Testosterone level of the blood plasma ([2]; dose 5.0 μg/kg, after 0 minutes): 2.1 (1.2) ng/ml | Testosterone level of the blood plasma ([2]; dose 5.0 μg/kg, after 30 minutes): 3.6 (2.4) ng/ml | Testosterone level of the blood plasma ([2]; dose 5.0 μg/kg, after 60 minutes): 2.7 (0.6) ng/ml | Testosterone level of the blood plasma ([2]; dose 5.0 μg/kg, after 120 minutes): 1.7 (0.9) ng/ml | Testosterone (testosterone level; sampling May 2): 2.43 ± 1.22 ng/mL | Testosterone (testosterone level; sampling May 23): 4.06 ± 1.62 ng/mL | time sperm production remained at a higher level as compared to the control (male turkeys [3]): about 1 month | increase of sperm production (male turkeys [3]; on the 20th day following treatment): 44%
